Like-named read-outs stand apart in the source and are kept apart here.
Tests used:
BT-549 cells = assay: Resazurin-based cell viability assay, monotherapy drug screen; parameters: species or system human; AUC: scale not given here; settings: BT-549; for AUC: area under the dose response curve, 24 h; for GRmax: drug efficacy at highest tested dose (<0 cytotoxic, 0 cytostatic, >0 partial growth inhibition)
Summary of the method: (§1)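 Cells were seeded at the highest density (tested 1000-16000 cells/well) giving linear growth between days 1 and 3, keeping them in exponential phase over the ~52 h experiment. Viability was read after 4 h at 37 °C with 0.2 mg/ml resazurin added at 10% of medium volume; ex 560/em 615 nm.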

HCC1806 cells = assay: as above; parameters: species or system human; AUC: scale not given here; settings: HCC1806; for AUC: area under the dose response curve, 24 h; for GRmax: drug efficacy at highest tested dose (<0 cytotoxic, 0 cytostatic, >0 partial growth inhibition)
Summary of the method: as §1

HCC38 cells = assay: as above; parameters: species or system human; AUC: scale not given here; settings: HCC38; for AUC: area under the dose response curve, 24 h; for GRmax: drug efficacy at highest tested dose (<0 cytotoxic, 0 cytostatic, >0 partial growth inhibition); for IC50: Homo sapiens
Summary of the method: as §1

HCC70 cells = assay: as above; parameters: species or system human; AUC: scale not given here; settings: HCC70; for AUC: area under the dose response curve, 24 h; for GRmax: drug efficacy at highest tested dose (<0 cytotoxic, 0 cytostatic, >0 partial growth inhibition); for IC50: Homo sapiens
Summary of the method: as §1

MCF-10A cells = assay: as above; parameters: species or system human; AUC: scale not given here; settings: for IC50: Homo sapiens; for AUC: area under the dose response curve, 24 h
Summary of the method: as §1

MCF-7 cells = assay: as above; parameters: species or system human; AUC: scale not given here; settings: MCF-7; for IC50: Homo sapiens, MCF7, growth rate inhibition concentration at GR(c) = 0.5, 24 h, read-out: GR50 (the source's name); for AUC: area under the dose response curve, 24 h; for GRmax: drug efficacy at highest tested dose (<0 cytotoxic, 0 cytostatic, >0 partial growth inhibition)
Summary of the method: as §1

MDA-MB-436 cells = assay: as above; parameters: species or system human; AUC: scale not given here; settings: MDA-MB-436; for IC50: Homo sapiens, growth rate inhibition concentration at GR(c) = 0.5, 24 h, read-out: GR50 (the source's name); for AUC: area under the dose response curve, 24 h; for GRmax: drug efficacy at highest tested dose (<0 cytotoxic, 0 cytostatic, >0 partial growth inhibition)
Summary of the method: as §1

MDA-MB-453 cells = assay: as above; parameters: species or system human; AUC: scale not given here; settings: MDA-MB-453; for IC50: Homo sapiens, growth rate inhibition concentration at GR(c) = 0.5, 24 h, read-out: GR50 (the source's name); for AUC: area under the dose response curve, 24 h
Summary of the method: as §1

MDA-MB-468 cells = assay: as above; parameters: species or system human; AUC: scale not given here; settings: MDA-MB-468; for IC50: Homo sapiens; for AUC: area under the dose response curve, 24 h
Summary of the method: as §1

[1] = tested on: eight TNBC cell lines (BT-549, CAL-148, HCC1806, HCC38, HCC70, MDA-MB-436, MDA-MB-453, MDA-MB-468); assay: Monotherapy drug screen, mean across the TNBC cell lines; settings: 24 h; for area under the dose response curve (AUC), mean ± SD: TNBC cell lines
Summary of the method: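 Cells seeded at 4.0 × 10^3–7.5 × 10^3/well, grown 24 h, then drug-treated 24 h with matched solvent-vehicle controls per concentration; resazurin absorbance read-out, viability normalised to vehicle after background subtraction, t = 0 untreated cells for GR. AUC, IC50, GR50, GRmax via GRmetrics; combinations predicted by IDACombo, synergy scored with SynergyFinder.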

[2] = 24 h drug treatment, read-out: IC50
[3] = growth rate inhibition concentration at GR(c) = 0.5, 24 h, read-out: GR50 (the source's name)
[4] = Homo sapiens, growth rate inhibition concentration at GR(c) = 0.5, 24 h, read-out: GR50 (the source's name)

SMILES	AUC (BT-549 cells)	GRmax (BT-549 cells)	AUC (HCC1806 cells)	GRmax (HCC1806 cells)	AUC (HCC38 cells)	GRmax (HCC38 cells)	IC50 (HCC38 cells; [2]) [nM]	IC50 (HCC38 cells; [3]) [nM]	AUC (HCC70 cells)	GRmax (HCC70 cells)	IC50 (HCC70 cells; [2]) [nM]	IC50 (HCC70 cells; [3]) [nM]	IC50 (MCF-10A cells; [2]) [nM]	IC50 (MCF-10A cells; [3]) [nM]	AUC (MCF-10A cells)	IC50 (MCF-7 cells) [nM]	AUC (MCF-7 cells)	GRmax (MCF-7 cells)	IC50 (MDA-MB-436 cells) [nM]	AUC (MDA-MB-436 cells)	other results
CC(C)C[C@H](NC(=O)[C@@H](NC(=O)c1cccc(-c2ccccc2)n1)[C@@H](C)O)B(O)O [Delanzomib]	0.73	0.48	0.74	0.50	0.42	−0.97	12	8.2	0.75	−0.36	3300	370	18	12	0.62	37	0.77	−0.28	29	0.79	GRmax (MDA-MB-436 cells): −0.84; IC50 (MDA-MB-453 cells): 27 nM; AUC (MDA-MB-453 cells): 0.76; IC50 (MDA-MB-468 cells; [2]): 77 nM; IC50 (MDA-MB-468 cells; [3]): 11 nM; AUC (MDA-MB-468 cells): 0.58; IC50 ([1]; Homo sapiens, read-out: GR50 (mean ± SD)): 79 ± 130 nM; area under the dose response curve (AUC), mean ± SD [1]: 0.69 ± 0.10
CC(C)C[C@H](NC(=O)CNC(=O)c1cc(Cl)ccc1Cl)B1OC(=O)C(CC(=O)O)(CC(=O)O)O1 [MLN 9708, MLN-9708]	0.80	0.43	0.79	0.47	0.59	−0.99	130	69	0.82	−0.34	4800	1200	380	70	0.72	270	0.87	−0.48	110	0.86	IC50 (BT-549 cells; [4]): 840 nM; IC50 (HCC1806 cells; [4]): 4.3 µM; GRmax (MDA-MB-436 cells): −0.82; IC50 (MDA-MB-453 cells): 1800 nM; AUC (MDA-MB-453 cells): 0.88; IC50 (MDA-MB-468 cells; [2]): 800 nM; IC50 (MDA-MB-468 cells; [3]): 100 nM; AUC (MDA-MB-468 cells): 0.72; area under the dose response curve (AUC), mean ± SD [1]: 0.79 ± 0.10
